Reference: publication PMC5451150 (Journal of Medicinal Chemistry, 2016)

Key:
PRMT5 = PRMT5 (Homo sapiens, UniProt O14744); experiment: Methyltransferase selectivity panel: PRMT5; format: biochemical; settings: substrate Histone 2A; top concentration 10 µM
MLL1 = MLL1 (Homo sapiens, UniProt Q03164); experiment: Methyltransferase selectivity panel: MLL1; format: biochemical; settings: substrate Nucleosomes; top concentration 10 µM
[1] = Rat pharmacokinetics (iv and po); format: in vivo; settings: po 25 mg/kg, male Sprague–Dawley rats
[2] = test system: panel of fifty-four physiologically relevant receptors, transporters, and ion channels; experiment: Secondary pharmacology panel; settings: at 10 μM; fifty-four targets
SUV39H1 = SUV39H1 (Homo sapiens, UniProt O43463); experiment: Methyltransferase selectivity panel: SUV39H1; format: biochemical; settings: substrate Histone H3; top concentration 10 µM
Chain of SUV39H1 (O43463 whole entry): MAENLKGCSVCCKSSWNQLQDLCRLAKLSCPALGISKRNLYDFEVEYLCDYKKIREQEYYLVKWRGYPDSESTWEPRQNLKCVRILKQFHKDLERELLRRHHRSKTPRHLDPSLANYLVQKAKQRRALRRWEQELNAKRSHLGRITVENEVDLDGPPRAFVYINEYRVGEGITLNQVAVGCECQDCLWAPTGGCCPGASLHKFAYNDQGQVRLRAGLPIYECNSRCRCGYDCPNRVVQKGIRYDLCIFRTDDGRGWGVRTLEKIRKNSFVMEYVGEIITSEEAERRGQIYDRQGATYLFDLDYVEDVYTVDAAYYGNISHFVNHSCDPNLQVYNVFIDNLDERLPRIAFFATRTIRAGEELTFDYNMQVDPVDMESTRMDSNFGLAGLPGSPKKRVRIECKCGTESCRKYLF

MLL2 = MLL2 (Homo sapiens, UniProt O14686); experiment: Methyltransferase selectivity panel: MLL2; format: biochemical; settings: substrate Core Histone; top concentration 10 µM
[3] = Plasma protein binding, human; format: in vitro ADME
GLP = GLP (Homo sapiens, UniProt Q9H9B1); experiment: Methyltransferase selectivity panel: GLP; format: biochemical; settings: substrate Histone H3 (1-21); top concentration 10 µM
SET1B = SET1B (Homo sapiens, UniProt Q9UPS6); experiment: Methyltransferase selectivity panel: SET1B; format: biochemical; settings: substrate Core Histone; top concentration 10 µM
PRMT3 = PRMT3 (Homo sapiens, UniProt O60678); experiment: Methyltransferase selectivity panel: PRMT3; format: biochemical; settings: substrate Histone H4; top concentration 10 µM
Chain of PRMT3 (O60678 whole entry): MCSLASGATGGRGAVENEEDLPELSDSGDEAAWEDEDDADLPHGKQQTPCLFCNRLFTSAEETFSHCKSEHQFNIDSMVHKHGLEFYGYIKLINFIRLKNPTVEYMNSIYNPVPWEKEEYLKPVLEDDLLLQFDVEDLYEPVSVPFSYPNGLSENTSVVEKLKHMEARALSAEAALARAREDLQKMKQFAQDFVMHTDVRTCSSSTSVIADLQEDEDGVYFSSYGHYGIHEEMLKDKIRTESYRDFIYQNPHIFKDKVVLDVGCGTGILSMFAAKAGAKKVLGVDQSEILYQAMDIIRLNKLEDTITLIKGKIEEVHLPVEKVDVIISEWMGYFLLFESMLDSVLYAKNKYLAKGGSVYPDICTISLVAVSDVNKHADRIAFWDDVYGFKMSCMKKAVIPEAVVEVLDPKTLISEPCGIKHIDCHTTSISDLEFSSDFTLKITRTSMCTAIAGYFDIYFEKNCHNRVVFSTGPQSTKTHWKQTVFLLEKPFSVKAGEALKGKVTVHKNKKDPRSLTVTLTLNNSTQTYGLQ

NSD2 = NSD2 (Homo sapiens, UniProt O96028); experiment: Methyltransferase selectivity panel: NSD2; format: biochemical; settings: substrate Nucleosomes; top concentration 10 µM
PRMT8 = PRMT8 (Homo sapiens, UniProt Q9NR22); experiment: Methyltransferase selectivity panel: PRMT8; format: biochemical; settings: substrate Histone H4; top concentration 10 µM
MLL3 = MLL3 (Homo sapiens, UniProt Q8NEZ4); experiment: Methyltransferase selectivity panel: MLL3; format: biochemical; settings: substrate Core Histone; top concentration 10 µM
DNMT3b = DNMT3b (Homo sapiens, UniProt Q9UBC3); experiment: Methyltransferase selectivity panel: DNMT3b; format: biochemical; settings: substrate Lambda DNA; top concentration 10 µM
SMYD2 = SMYD2 (Homo sapiens, UniProt Q9NRG4); experiment: Methyltransferase selectivity panel: SMYD2; format: biochemical; settings: substrate Histone H4; top concentration 10 µM
[4] = Plasma protein binding, dog; format: in vitro ADME
[5] = Plasma protein binding, rat; format: in vitro ADME
[6] = test system: cytochrome P450 enzymes 1A2, 2C9, 2C8, 2D6, and 3A4; experiment: Time-dependent inhibition (TDI) of cytochrome P450 enzymes; format: in vitro ADME
[7] = Intrinsic clearance in mouse liver microsomes; format: in vitro ADME
DOT1L = DOT1L (Homo sapiens, UniProt Q8TEK3); experiment: Methyltransferase selectivity panel: DOT1L; format: biochemical; settings: substrate Nucleosomes; top concentration 10 µM
MLL4 = experiment: Methyltransferase selectivity panel: MLL4; format: biochemical; settings: substrate Core Histone; top concentration 10 µM
SETD2 = SETD2 (Homo sapiens, UniProt Q9BYW2); experiment: Methyltransferase selectivity panel: SETD2; format: biochemical; settings: substrate Histone H4; top concentration 10 µM
G9a = G9a (Homo sapiens, UniProt Q96KQ7); experiment: Methyltransferase selectivity panel: G9a; format: biochemical; settings: substrate Histone H3 (1-21); top concentration 10 µM
PRMT6 = PRMT6 (Homo sapiens, UniProt Q96LA8); settings: substrate Histone H3; top concentration 10 µM
NSD2 (E1099K) = NSD2 (E1099K) (Homo sapiens, UniProt O96028, E1099K); experiment: Methyltransferase selectivity panel: NSD2 (E1099K); format: biochemical; settings: substrate Nucleosomes; top concentration 10 µM
SET8 = SET8 (Homo sapiens, UniProt Q9NQR1); experiment: Methyltransferase selectivity panel: SET8; format: biochemical; settings: substrate Nucleosomes; top concentration 10 µM
Chain of SET8 (Q9NQR1 whole entry): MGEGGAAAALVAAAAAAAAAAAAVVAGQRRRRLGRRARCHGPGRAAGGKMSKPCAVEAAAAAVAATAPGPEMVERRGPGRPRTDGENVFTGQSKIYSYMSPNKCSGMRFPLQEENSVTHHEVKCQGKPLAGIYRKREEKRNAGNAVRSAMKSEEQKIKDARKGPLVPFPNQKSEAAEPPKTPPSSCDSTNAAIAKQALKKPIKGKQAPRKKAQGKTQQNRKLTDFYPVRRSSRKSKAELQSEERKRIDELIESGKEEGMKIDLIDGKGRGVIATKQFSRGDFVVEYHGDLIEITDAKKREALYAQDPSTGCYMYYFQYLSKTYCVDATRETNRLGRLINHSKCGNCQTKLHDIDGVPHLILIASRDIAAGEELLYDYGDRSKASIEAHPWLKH

PRMT4 = PRMT4 (Homo sapiens, UniProt Q86X55); experiment: Methyltransferase selectivity panel: PRMT4; format: biochemical; settings: substrate Histone H3; top concentration 10 µM
[8] = Plasma protein binding, mouse; format: in vitro ADME
EZH2 C663S = molecular target: T1, EZH2 C663S (Homo sapiens, UniProt O75530+Q15910, C663S); experiment: EZH2 C663S incorporated into reconstituted PRC2, potency; format: biochemical; settings: single substitution cysteine to serine at position 663, reconstituted PRC2
T1 construct: made in house

PRMT1 = PRMT1 (Homo sapiens, UniProt Q99873); experiment: Methyltransferase selectivity panel: PRMT1; format: biochemical; settings: substrate Histone H4; top concentration 10 µM
PRDM9 = PRDM9 (Homo sapiens, UniProt Q9NQV7); experiment: Methyltransferase selectivity panel: PRDM9; format: biochemical; settings: substrate Histone H3; top concentration 10 µM
Chain of PRDM9 (Q9NQV7 whole entry): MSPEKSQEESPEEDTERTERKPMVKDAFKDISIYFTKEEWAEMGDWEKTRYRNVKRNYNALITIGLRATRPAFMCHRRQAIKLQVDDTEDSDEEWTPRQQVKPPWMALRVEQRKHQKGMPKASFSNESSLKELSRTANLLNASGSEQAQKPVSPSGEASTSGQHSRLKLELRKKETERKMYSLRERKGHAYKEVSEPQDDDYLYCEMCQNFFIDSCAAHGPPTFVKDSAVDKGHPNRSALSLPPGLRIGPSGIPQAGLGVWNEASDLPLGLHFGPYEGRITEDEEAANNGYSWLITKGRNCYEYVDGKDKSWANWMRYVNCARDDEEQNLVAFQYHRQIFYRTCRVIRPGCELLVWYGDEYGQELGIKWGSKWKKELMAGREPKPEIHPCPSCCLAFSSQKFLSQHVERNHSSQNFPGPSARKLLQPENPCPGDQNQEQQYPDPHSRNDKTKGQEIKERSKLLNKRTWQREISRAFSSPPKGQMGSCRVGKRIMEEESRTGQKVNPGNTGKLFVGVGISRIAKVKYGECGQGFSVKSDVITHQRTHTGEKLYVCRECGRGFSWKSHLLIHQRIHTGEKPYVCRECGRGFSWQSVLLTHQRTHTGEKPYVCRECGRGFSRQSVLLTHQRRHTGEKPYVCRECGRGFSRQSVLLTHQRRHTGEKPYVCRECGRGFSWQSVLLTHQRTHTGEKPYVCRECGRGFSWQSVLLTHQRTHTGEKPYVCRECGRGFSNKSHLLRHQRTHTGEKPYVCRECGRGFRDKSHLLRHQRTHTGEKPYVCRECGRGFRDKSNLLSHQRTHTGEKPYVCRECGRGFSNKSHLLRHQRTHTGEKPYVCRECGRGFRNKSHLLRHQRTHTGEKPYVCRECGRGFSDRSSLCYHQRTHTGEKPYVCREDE

NSD1 = NSD1 (Homo sapiens, UniProt Q96L73); experiment: Methyltransferase selectivity panel: NSD1; format: biochemical; settings: substrate Nucleosomes; top concentration 10 µM
Chain of NSD1 (Q96L73 whole entry, species assumed): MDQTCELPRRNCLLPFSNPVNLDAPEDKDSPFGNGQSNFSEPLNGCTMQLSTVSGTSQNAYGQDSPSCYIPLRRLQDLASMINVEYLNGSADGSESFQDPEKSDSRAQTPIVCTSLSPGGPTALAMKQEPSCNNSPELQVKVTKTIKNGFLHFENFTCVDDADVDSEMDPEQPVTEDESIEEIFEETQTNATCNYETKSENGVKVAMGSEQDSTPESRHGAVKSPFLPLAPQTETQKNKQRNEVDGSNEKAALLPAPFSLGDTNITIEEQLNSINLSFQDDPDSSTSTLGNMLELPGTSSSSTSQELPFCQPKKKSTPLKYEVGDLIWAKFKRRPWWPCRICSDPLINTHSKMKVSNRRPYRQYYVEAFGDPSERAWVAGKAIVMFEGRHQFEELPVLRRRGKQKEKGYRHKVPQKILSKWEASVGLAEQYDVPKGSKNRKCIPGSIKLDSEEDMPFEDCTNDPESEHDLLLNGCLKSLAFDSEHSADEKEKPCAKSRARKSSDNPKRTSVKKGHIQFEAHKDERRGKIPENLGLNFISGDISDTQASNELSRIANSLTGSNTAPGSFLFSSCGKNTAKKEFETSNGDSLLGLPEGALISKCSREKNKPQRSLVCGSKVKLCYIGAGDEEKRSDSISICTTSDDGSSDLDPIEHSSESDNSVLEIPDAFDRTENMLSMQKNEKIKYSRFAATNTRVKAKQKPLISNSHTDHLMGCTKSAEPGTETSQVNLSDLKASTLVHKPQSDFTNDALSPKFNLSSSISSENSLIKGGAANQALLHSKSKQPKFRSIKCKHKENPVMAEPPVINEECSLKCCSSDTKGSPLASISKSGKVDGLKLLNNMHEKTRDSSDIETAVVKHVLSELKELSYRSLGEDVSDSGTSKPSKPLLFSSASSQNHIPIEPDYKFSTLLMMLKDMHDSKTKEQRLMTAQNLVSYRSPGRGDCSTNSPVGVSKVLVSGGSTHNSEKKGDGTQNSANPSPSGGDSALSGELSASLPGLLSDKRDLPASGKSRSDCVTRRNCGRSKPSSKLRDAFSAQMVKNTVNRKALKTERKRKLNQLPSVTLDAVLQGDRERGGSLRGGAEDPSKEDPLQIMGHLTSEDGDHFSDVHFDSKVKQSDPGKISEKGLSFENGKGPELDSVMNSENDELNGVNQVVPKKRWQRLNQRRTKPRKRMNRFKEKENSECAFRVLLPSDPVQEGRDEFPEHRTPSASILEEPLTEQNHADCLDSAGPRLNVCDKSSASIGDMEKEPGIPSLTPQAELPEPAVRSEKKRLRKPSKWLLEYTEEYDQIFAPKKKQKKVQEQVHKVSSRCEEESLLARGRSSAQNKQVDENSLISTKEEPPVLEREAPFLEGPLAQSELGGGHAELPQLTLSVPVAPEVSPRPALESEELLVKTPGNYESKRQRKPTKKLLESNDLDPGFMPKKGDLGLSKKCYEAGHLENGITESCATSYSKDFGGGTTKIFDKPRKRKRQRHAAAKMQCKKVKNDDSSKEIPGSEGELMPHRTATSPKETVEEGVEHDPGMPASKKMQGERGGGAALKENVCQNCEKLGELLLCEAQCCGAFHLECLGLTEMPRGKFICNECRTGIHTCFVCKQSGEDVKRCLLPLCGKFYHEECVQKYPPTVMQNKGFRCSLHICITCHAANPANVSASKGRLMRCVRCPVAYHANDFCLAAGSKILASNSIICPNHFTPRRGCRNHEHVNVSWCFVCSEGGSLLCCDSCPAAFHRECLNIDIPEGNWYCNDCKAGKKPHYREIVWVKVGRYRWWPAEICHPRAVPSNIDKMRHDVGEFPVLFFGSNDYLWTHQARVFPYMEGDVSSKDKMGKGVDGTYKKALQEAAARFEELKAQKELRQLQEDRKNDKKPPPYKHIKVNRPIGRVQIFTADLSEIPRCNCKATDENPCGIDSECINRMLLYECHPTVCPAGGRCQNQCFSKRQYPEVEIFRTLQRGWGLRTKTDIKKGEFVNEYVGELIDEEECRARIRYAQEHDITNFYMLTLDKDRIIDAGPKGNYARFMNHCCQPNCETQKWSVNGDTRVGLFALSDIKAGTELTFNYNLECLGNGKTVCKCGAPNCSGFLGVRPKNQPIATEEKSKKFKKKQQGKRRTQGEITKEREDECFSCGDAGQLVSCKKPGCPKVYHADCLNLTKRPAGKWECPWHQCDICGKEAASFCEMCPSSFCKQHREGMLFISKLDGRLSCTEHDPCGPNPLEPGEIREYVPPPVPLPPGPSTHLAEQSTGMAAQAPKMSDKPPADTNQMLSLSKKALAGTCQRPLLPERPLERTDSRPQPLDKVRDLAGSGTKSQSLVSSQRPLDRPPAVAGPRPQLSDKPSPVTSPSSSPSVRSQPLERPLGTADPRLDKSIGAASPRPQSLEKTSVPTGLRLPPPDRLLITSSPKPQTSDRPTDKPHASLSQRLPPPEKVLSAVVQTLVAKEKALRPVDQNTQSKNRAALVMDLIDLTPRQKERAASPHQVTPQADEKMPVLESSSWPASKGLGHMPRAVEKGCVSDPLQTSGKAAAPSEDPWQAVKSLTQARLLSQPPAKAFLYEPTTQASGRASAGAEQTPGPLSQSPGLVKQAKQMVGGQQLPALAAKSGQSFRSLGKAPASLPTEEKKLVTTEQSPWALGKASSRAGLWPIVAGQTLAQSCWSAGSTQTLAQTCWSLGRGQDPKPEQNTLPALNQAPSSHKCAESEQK

DNMT3a = DNMT3a (Homo sapiens, UniProt Q9Y6K1); experiment: Methyltransferase selectivity panel: DNMT3a; format: biochemical; settings: substrate Lambda DNA; top concentration 10 µM
DNMT1 = DNMT1 (Homo sapiens, UniProt P26358); experiment: Methyltransferase selectivity panel: DNMT1; format: biochemical; settings: substrate Poly dl-dC; top concentration 10 µM
SUV39H2 = SUV39H2 (Homo sapiens, UniProt Q9H5I1); experiment: Methyltransferase selectivity panel: SUV39H2; format: biochemical; settings: substrate Histone H3; top concentration 10 µM
[9] = Dog pharmacokinetics (iv and po); format: in vivo; settings: po 5 mg/kg, male beagle dogs
[10] = test system: KARPAS-422 B-cell lymphoma xenograft; experiment: KARPAS-422 B-cell lymphoma xenograft efficacy and PK/PD in CB-17 SCID mice; settings: for antitumor efficacy (in words): 160 mg/kg BID
SUV420H1TV2 = SUV420H1TV2 (Homo sapiens, UniProt Q4FZB7); experiment: Methyltransferase selectivity panel: SUV420H1TV2; format: biochemical; settings: substrate Nucleosomes; top concentration 10 µM

- Cmax unbound (value in brackets) [1]: 593 nM
- inhibition of any target of the panel [2]: ≤ 50%
- PPB [3]: 92.8 % bound
- PPB ([4]; dog plasma): 90.3 % bound
- fraction unbound ([4]; plasma, in vitro, dog, read-out: fu (fraction unbound to plasma protein)): 0.089
- PPB [5]: 89.9 % bound
- time-dependent inhibition (TDI) of cytochrome P450 enzymes [6]: no time-dependent inhibition
- Clint [7]: 159 μL/min/mg protein
- microsomal CLint ([7]; mouse, liver microsomes): > 100 µL/min/mg
- PPB [8]: 97.9 % bound
- potency in mutated EZH2 C663S (versus EZH2) (EZH2 C663S): decreased
- Cmax unbound (value in brackets) [9]: 120 nM
Structure (SMILES): COc1cc(C)[nH]c(=O)c1CNC(=O)c1c(C)n([C@H](C)C2CCN(CC(F)(F)F)CC2)c2ccccc12 [compound 13, (R)-N-((4-Methoxy-6-methyl-2-oxo-1,2-dihydropyridin-3-yl)methyl)-2-methyl-1-(1-(1-(2,2,2-trifluoroethyl)piperidin-4-yl)ethyl)-1H-indole-3-carboxamide]
- PRMT5 IC50 (PRMT5): no inhibition or compound activity that could not be fit to an IC50 curve
- MLL1 IC50 (MLL1): no inhibition or compound activity that could not be fit to an IC50 curve
- SUV39H1 IC50 (SUV39H1): no inhibition or compound activity that could not be fit to an IC50 curve
- MLL2 IC50 (MLL2): no inhibition or compound activity that could not be fit to an IC50 curve
- GLP IC50 (GLP): no inhibition or compound activity that could not be fit to an IC50 curve
- SET1B IC50 (SET1B): no inhibition or compound activity that could not be fit to an IC50 curve
- PRMT3 IC50 (PRMT3): no inhibition or compound activity that could not be fit to an IC50 curve
- NSD2 IC50 (NSD2): no inhibition or compound activity that could not be fit to an IC50 curve
- PRMT8 IC50 (PRMT8): no inhibition or compound activity that could not be fit to an IC50 curve
- MLL3 IC50 (MLL3): no inhibition or compound activity that could not be fit to an IC50 curve
- DNMT3b IC50 (DNMT3b): no inhibition or compound activity that could not be fit to an IC50 curve
- SMYD2 IC50 (SMYD2): no inhibition or compound activity that could not be fit to an IC50 curve
- DOT1L IC50 (DOT1L): no inhibition or compound activity that could not be fit to an IC50 curve
- MLL4 IC50 (MLL4): no inhibition or compound activity that could not be fit to an IC50 curve
- SETD2 IC50 (SETD2): no inhibition or compound activity that could not be fit to an IC50 curve
- G9a IC50 (G9a): no inhibition or compound activity that could not be fit to an IC50 curve
- PRMT6 IC50 (PRMT6): no inhibition or compound activity that could not be fit to an IC50 curve
- NSD2 (E1099K) IC50 (NSD2 (E1099K)): no inhibition or compound activity that could not be fit to an IC50 curve
- SET8 IC50 (SET8): no inhibition or compound activity that could not be fit to an IC50 curve
- PRMT4 IC50 (PRMT4): no inhibition or compound activity that could not be fit to an IC50 curve
- PRMT1 IC50 (PRMT1): no inhibition or compound activity that could not be fit to an IC50 curve
- PRDM9 IC50 (PRDM9): no inhibition or compound activity that could not be fit to an IC50 curve
- NSD1 IC50 (NSD1): no inhibition or compound activity that could not be fit to an IC50 curve
- DNMT3a IC50 (DNMT3a): no inhibition or compound activity that could not be fit to an IC50 curve
- DNMT1 IC50 (DNMT1): no inhibition or compound activity that could not be fit to an IC50 curve
- SUV39H2 IC50 (SUV39H2): no inhibition or compound activity that could not be fit to an IC50 curve
- antitumor efficacy (in words) [10]: efficacious
- antitumor efficacy (in words) ([10]; listed as CPI-1205): robust antitumor effects
- time to observed tumor regression ([10]; 160 mg/kg po BID, female CB-17 SCID mice): ≤ 2 weeks
- SUV420H1TV2 IC50 (SUV420H1TV2): no inhibition or compound activity that could not be fit to an IC50 curve
